For this experiment, the target named is T1, human α1d receptor (Homo sapiens, UniProt P25100).
T1 construct: The entire coding region of α1d (1719 bp); expressed in transfected cells; host or cells: LM(tk-) mouse fibroblast line L-α1A (old nomenclature), ATCC CRL 11138
T1 sequence (P25100 1-572): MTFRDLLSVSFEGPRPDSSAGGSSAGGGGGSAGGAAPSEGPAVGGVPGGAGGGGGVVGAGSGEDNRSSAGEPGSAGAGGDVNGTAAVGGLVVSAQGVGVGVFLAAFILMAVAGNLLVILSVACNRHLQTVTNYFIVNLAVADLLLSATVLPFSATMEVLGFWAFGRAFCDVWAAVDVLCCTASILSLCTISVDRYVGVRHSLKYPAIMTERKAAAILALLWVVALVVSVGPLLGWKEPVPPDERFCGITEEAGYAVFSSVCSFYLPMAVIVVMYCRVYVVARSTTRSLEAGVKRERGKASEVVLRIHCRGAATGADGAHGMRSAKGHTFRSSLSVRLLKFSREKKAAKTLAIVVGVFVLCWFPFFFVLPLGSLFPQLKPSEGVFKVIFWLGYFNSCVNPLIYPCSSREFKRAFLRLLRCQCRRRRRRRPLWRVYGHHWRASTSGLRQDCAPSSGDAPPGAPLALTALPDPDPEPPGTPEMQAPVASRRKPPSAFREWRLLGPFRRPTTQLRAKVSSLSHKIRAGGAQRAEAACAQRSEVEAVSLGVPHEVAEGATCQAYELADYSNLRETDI
Put plainly: Radioligand binding ([^3 H]prazosin) at cloned human α1d receptor. The conditions noted are these: LM(tk-) cell membranes, read-out: hα1d Ki. As for the experimental part:
Binding affinities were measured for selected compounds of the invention at six cloned human α1 and α2 receptor subtypes, as well as at the L-type calcium channel. The protocols for these experiments are given below.
The activity of compounds at the different human receptors was determined in vitro using cultured cell lines that selectively express the receptor of interest. These cell lines were prepared by transfecting the cloned cDNA or cloned genomic DNA or constructs containing both genomic DNA and cDNA encoding the human α-adrenergic receptors as follows:
α1d Human Adrenergic Receptor: The entire coding region of α1d (1719 bp), including 150 base pairs of 5' untranslated sequence (5' UT) and 300 bp of 3' untranslated sequence (3' UT), was cloned into the BamHI and ClaI sites of the polylinker-modified eukaryotic expression vector pCEXV-3, called EXJ.HR. The construct involved the ligation of partial overlapping human lymphocyte genomic and hippocampal cDNA clones: 5' sequence were contained on a 1.2 kb SmaI-XhoI genomic fragment (the vector-derived BamHI site was used for subcloning instead of the internal insert-derived SmaI site) and 3' sequences were contained on an 1.3 kb XhoI-ClaI cDNA fragment (the ClaI site was from the vector polylinker). Stable cell lines were obtained by cotransfection with the plasmid α1A/EXJ (expression vector containing the α1a receptor gene (old nomenclature)) and the plasmid pGCcos3neo (plasmid containing the aminoglycoside transferase gene) into LM(tk-) cells using calcium phosphate technique. The cells were grown, in a controlled environment (37° C., 5% CO2), as monolayers in Dulbecco's modified Eagle's Medium (GIBCO, Grand Island, N.Y.) containing 25 mM glucose and supplemented with 10% bovine calf serum, 100 units/ml penicillin g, and 100 μg/ml streptomycin sulfate. Stable clones were then selected for resistance to the antibiotic G-418 (1 mg/ml), and membranes were harvested and assayed for their ability to bind [^3 H]prazosin as described below (see "Radioligand Binding assays").
The cell line expressing the human α1d receptor used herein was designated L-α1A (old nomenclature) and was deposited with the American Type Culture Collection, 12301 Parklawn Drive, Rockville, Md. 20852, U.S.A. under the provisions of the Budapest Treaty for the International Recognition of the Deposit of Microorganisms for the Purposes of Patent Procedure. The cell line expressing the human α1d receptor, was accorded ATCC Accession No. CRL 11138, and was deposited on Sep. 25, 1992.
Radioligand Binding Assays for α1 receptors:
Transfected cells from culture flasks were scraped into 5 ml of 5 mM Tris-HCl, 5 mM EDTA, pH 7.5, and lysed by sonication. The cell lysates were centrifuged at 1000 rpm for 5 min at 4° C., and the supernatant was centrifuged at 30,000× g for 20 min at 4° C. The pellet was suspended in 50 mM Tris-HCl, 1 mM MgCl2, and 0.1% ascorbic acid at pH 7.5. Binding of the α1 antagonist [^3 H]prazosin (0.5 nM, specific activity 76.2 Ci/mmol) to membrane preparations of LM(tk-) cells was done in a final volume of 0.25 ml and incubated at 37° C. for 20 min. Nonspecific binding was determined in the presence of […] phentolamine. The reaction was stopped by filtration through GF/B filters using a cell harvester. Inhibition experiments, routinely consisting of 7 concentrations of the tested compounds, were analyzed using a non-linear regression curve-fitting computer program to obtain Ki values.
The compounds described above were assayed using cloned human alpha adrenergic receptors. […] The binding affinities of several compounds are illustrated in the following table.
Binding affinities of selected compounds of the present invention at cloned human α1d, α1b and α1a receptors. (h=human)

The Ki is the equilibrium dissociation constant of an inhibitor or competing ligand from its target. For the compound `COC(=O)c1[nH]c(=O)n(CCCCCN2CCN(c3ccccc3C(N)=O)CC2)c1-c1cc(F)c(F)cc1F` [Compound 7, 1-(5-(4-(2-Aminocarbonylphenyl)piperazin-1-yl)pent-1-yl)-5-(2,4,5-trifluorophenyl)-2,3-dihydro-4-methoxylcarboxy-2(1H)-imidazolone], the Ki is 197 nM.

Consider `COC(=O)c1[nH]c(=O)n(CCCCCN2CCC(C(=O)OC)(c3ccccc3)CC2)c1-c1ccc(F)c(F)c1` [Compound 1, 1-(5-(4-Methoxycarbonyl-4-phenylpiperidin-1-yl)pent-1-yl)-4-methoxycarbonyl-5-(3,4-difluorophenyl)-2,3-dihydro-2(1H)-imidazolone], for which the Ki came to 329 nM.

With `COC(=O)c1[nH]c(=O)n(CCCCCN2CCC(C(=O)OC)(c3ccccc3)CC2)c1Cc1ccc(F)c(F)c1` [Compound 37, 5-(3,4-Difluorobenzyl)-2,3-dihydro-4-methoxycarbonyl-1-(5-(4-methoxycarbonyl-4-phenylpiperidin-1-yl)pent-1-yl)-2(1H) -imidazolone], the Ki was 513 nM.

`COC(=O)c1[nH]c(=O)n(CCCCCN2CCC(C#N)(c3ccccc3)CC2)c1-c1ccc(F)c(F)c1` [Compound 2, 5-(3,4-Difluorophenyl)-2,3-dihydro-4-methoxycarbonyl-1-(5-(4-cyano-4-phenylpiperidin-1-yl)pent-1-yl)-2(1H)-imidazolone]: the Ki stood at 367 nM.

As to `COC(=O)c1[nH]c(=O)n(CCCCCN2CCC(O)(c3ccccc3)CC2)c1-c1ccc(F)c(F)c1` [Compound 3, 5-(3,4-Difluorophenyl)-2,3-dihydro-4-methoxycarbonyl-1-(5-(4-hydroxy-4-phenylpiperidin-1-yl)pent-1-yl)-2(1H)-imidazolone], the Ki stood at 2660 nM.

For the compound `CCOC(=O)c1[nH]c(=O)n(CCCCCN2CCN(c3ccccc3C(N)=O)CC2)c1-c1ccc(F)c(F)c1` [Compound 6, 1-(5-(4-(2-Aminocarbonylphenyl)piperazin-1-yl)pent-1-yl)-4-ethoxycarbonyl-5-(3,4-difluorophenyl)-2,3-dihydro-2(1H)-imidazolone], the Ki worked out at 141 nM.

Take `COC(=O)c1ccccc1N1CCN(CCCCCn2c(-c3cc(F)c(F)c(F)c3)c(C(=O)OC)[nH]c2=O)CC1` [Compound 5, 5-(3,4,5-Trifluorophenyl)-2,3-dihydro-4-methoxycarbonyl-1-(5-(4-(2-methoxycarbonylphenyl)piperazin-1-yl)pent-1-yl)-2(1H)-imidazolone]: the Ki was found to be 15.7 nM.

Turning to `COC(=O)c1[nH]c(=O)n(CCCCCN2CCN(c3ccccc3C(N)=O)CC2)c1-c1cc(F)c(F)c(F)c1` [Compound 4, 1-(5-(4-(2-Aminocarbonylphenyl)piperazin-1-yl)pent-1-yl)-5-(3,4,5-trifluorophenyl)-2,3-dihydro-4-methoxycarbonyl-2(1H)-imidazolone], the Ki came out at 279 nM.

For the origin of these results see US6046331A, “Imidazolones and their use in treating benign prostatic hyperplasia and other disorders” (Synaptic Pharmaceutical Corporation, priority 1998, dated 2000).
